Measurements from ChEMBL document CHEMBL6096641, “Discovery of the synergy between sulindac and NO expands the application of NSAIDs in cardiac complications” (Bioorg Med Chem, 2024).
Calls of active or inactive are those of the source. No cut-off for these calls is given here.

Experiments:
H9c2 [1] = assay: Induction of NO release ratio in rat H9c2 cells under hypoxia condition by Griess reagent based microplate reader analysis relative to control; format: functional; set-up: concentration or dose not given beside the values
H9c2 [2] = assay: Upregulation of HO-1 expression in rat H9c2 cells at 1 uM under hypoxia by Western blotting analysis; format: functional, cell-based
Rattus norvegicus [3] = assay: Cardioprotective activity against LPS and talc powder induced pericarditis male Wistar rat assessed as improvement in cardiac swelling at 10 mg/kg administered for 3 days; format: functional, organism-based; details: time 3.0 day
H9c2 [4] = assay: Upregulation of VEFG protein expression level in rat H9c2 cells at 1 uM under hypoxia by Western blotting analysis; format: functional, cell-based
Rattus norvegicus [5] = assay: Cardioprotective activity against LPS and talc powder induced pericarditis male Wistar rat assessed as improvement in pericardium thickening at 10 mg/kg administered for 3 days; format: functional, organism-based; details: time 3.0 day
[6] = Induction of H2S release by absorbance based analysis; format: functional
H9c2 [7] = assay: Downregulation of ACE protein expression in rat H9c2 cells at 1 uM under hypoxia by Western blotting analysis; format: functional, cell-based
[8] = Toxicity in male Wistar rat assessed as growth curve at 10 mg/kg administered once a day for 3 days and measured after 6 days; format: organism-based; details: in vivo, 72 h, time 3 day
H9c2 [9] = assay: Induction of NO release in rat H9c2 cells under hypoxia condition at 1 to 50 uM incubated for 4 hrs by Griess reagent based microplate reader analysis; format: functional, cell-based; details: dose 1-50 µM
[10] = target: T1, Prostaglandin G/H synthase 2 (Homo sapiens, UniProt P35354); assay: Inhibition of COX-2 (unknown origin)
T1 sequence (P35354 whole entry): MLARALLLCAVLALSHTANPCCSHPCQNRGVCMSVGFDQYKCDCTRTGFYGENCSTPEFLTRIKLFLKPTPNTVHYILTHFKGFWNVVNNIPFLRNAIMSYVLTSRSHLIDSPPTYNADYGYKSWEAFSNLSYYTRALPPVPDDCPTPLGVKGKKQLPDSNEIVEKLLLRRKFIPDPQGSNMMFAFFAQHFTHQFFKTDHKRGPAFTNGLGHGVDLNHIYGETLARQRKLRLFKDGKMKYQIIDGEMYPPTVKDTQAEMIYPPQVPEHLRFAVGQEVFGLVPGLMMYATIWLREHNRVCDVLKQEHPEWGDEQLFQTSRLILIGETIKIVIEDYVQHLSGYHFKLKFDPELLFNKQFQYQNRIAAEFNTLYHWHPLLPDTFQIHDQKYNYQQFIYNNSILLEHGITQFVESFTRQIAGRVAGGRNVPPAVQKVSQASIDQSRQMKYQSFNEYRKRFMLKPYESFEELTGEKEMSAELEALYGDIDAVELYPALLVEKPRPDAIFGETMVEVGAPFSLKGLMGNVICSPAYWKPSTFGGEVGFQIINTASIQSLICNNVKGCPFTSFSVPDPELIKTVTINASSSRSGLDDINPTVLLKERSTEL

**Q.** With `CCc1cccc2c3c([nH]c12)C(CC)(CC(=O)Oc1ccc(N(C)N=O)cc1)OCC3` (configuration not stated) as the compound, how does the Activity (H9c2 [1]) read?
**A.** The Activity was 1.01%.

**Q.** Which Activity (H9c2 [1]) does the source give for `CC(C(=O)Oc1ccc(N(C)N=O)cc1)c1cccc(Oc2ccccc2)c1` (configuration not stated) here?
**A.** Its Activity is 1.12%.

**Q.** Which Activity (H9c2 [2]) does the source give for `CC1=C(CC(=O)O)c2cc(F)ccc2/C1=C\c1ccc([S+](C)[O-])cc1` (configuration not stated) [SULINDAC] here?
**A.** The Activity was “Active”.

**Q.** What about the Activity (Rattus norvegicus [3]) of the same compound?
**A.** Its Activity is “Active”.

**Q.** And the Activity (H9c2 [4])?
**A.** Its Activity is “inactive”.

**Q.** What about the Activity (Rattus norvegicus [5]) of the same compound?
**A.** The Activity was “Active”.

**Q.** What about the Activity [6] of the same compound?
**A.** The Activity was 29.5 µg/L.

**Q.** What about the Activity (H9c2 [7]) of the same compound?
**A.** The Activity was “Active”.

**Q.** What about the Activity [8] of the same compound?
**A.** The Activity was “Non-toxic”.

**Q.** And the Activity (H9c2 [9])?
**A.** The Activity was “inactive”.

**Q.** With `COc1ccc2c(c1)c(CC(=O)Oc1ccc(N(C)N=O)cc1)c(C)n2C(=O)c1ccc(Cl)cc1` as the compound, how does the Activity (H9c2 [1]) read?
**A.** Its Activity is 32.85%.

**Q.** With `CC1=C(CC(=O)Oc2ccc(N(C)N=O)cc2)c2cc(F)ccc2/C1=C\c1ccc([S+](C)[O-])cc1` (configuration not stated) as the compound, how does the Activity (H9c2 [1]) read?
**A.** The Activity was 32.56%.

**Q.** With `CC(C(=O)Oc1ccc(N(C)N=O)cc1)c1cccc(C(=O)c2ccccc2)c1` (configuration not stated) as the compound, how does the Activity (H9c2 [1]) read?
**A.** The Activity was 2.23%.

**Q.** Which Activity (H9c2 [1]) does the source give for `COc1ccc2cc(C(C)C(=O)Oc3ccc(N(C)N=O)cc3)ccc2c1` (single isomer, unassigned) here?
**A.** The Activity was 44.95%.

**Q.** With `Cc1cccc(Nc2ccccc2C(=O)Oc2ccc(N(C)N=O)cc2)c1C` as the compound, how does the Activity (H9c2 [1]) read?
**A.** Its Activity is 34.55%.

**Q.** Which Activity (H9c2 [1]) does the source give for `CC(C)Cc1ccc(C(C)C(=O)Oc2ccc(N(C)N=O)cc2)cc1` (configuration not stated) here?
**A.** Its Activity is 12.11%.

**Q.** And the IC50 [10]?
**A.** The IC50 was 451 µM.
